Assays:
Type in all cases: cell-based, Escherichia coli
EKO-35 araC::acrEF Pore = experiment: MIC susceptibility profiling, porinated efflux platform; conditions: for Minimum inhibitory concentration, EKO-35 araC::acrEF Pore: Table 14A, porinated, technical duplicate
In short: (§1)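 E. coli strains carrying a genomically integrated constitutive fhuA ΔC/Δ4L pore were grown 18 h in LB at 37 °C, then diluted 1/2000 in MHB II from OD600 ~1.0. Compounds were tested in duplicate, 2-fold serial titration, for 18 h at 37 °C with shaking. MIC came from OD600 with the pre-incubation background subtracted.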

EKO-35 araC::acrD Pore = experiment: as above; conditions: for Fold changes of MICs: EKO-35 araC::acrD Pore compared to EKO-35-Pore
In short: as §1

EKO-35 araC::emrKY Pore = experiment: as above; conditions: for Fold changes of MICs: EKO-35 araC::emrKY Pore compared to EKO-35-Pore; for Minimum inhibitory concentration: EKO-35 araC::emrKY Pore, technical duplicate
In short: as §1

EKO-35 araC::emrAB Pore = experiment: as above; conditions: for Fold changes of MICs: EKO-35 araC::emrAB Pore compared to EKO-35-Pore; for Minimum inhibitory concentration: EKO-35 araC::emrAB Pore, technical duplicate
In short: as §1

EKO-35 araC::mdtEF Pore = experiment: as above; conditions: for Fold changes of MICs: EKO-35 araC::mdtEF Pore compared to EKO-35-Pore; for Minimum inhibitory concentration, EKO-35 araC::mdtEF Pore: Table 14A, porinated, technical duplicate
In short: as §1

EKO-35 araC::mdtBC Pore = experiment: as above; conditions: for Fold changes of MICs: EKO-35 araC::mdtBC Pore compared to EKO-35-Pore; for Minimum inhibitory concentration: EKO-35 araC::mdtBC Pore, technical duplicate
In short: as §1

[1] = tested on: EKO-35 araC::acrBD408A Pore; experiment: as above; conditions: for Fold changes of MICs: EKO-35 araC::acrBD408A Pore compared to EKO-35-Pore; for Minimum inhibitory concentration: EKO-35 araC::acrBD408A Pore, technical duplicate
In short: as §1

EKO-35 araC::acrB Pore = experiment: as above; conditions: for Fold changes of MICs: EKO-35 araC::acr-B Pore compared to EKO-35-Pore
In short: as §1

EKO-35 araC::mexCD Pore = experiment: as above; conditions: for Fold changes of MICs: EKO-35 araC::mexCD Pore compared to EKO-35-Pore; for Minimum inhibitory concentration: EKO-35 araC::mexCD Pore, technical duplicate; for efflux pump-mediated resistance vs EKO-35-Pore: MexCD, OM compromised
In short: as §1

EKO-35 araC::macAB Pore = experiment: as above; conditions: for Fold changes of MICs: EKO-35 araC::macAB Pore compared to EKO-35-Pore; for Minimum inhibitory concentration: EKO-35 araC::macAB Pore, technical duplicate
In short: as §1

EKO-35 araC::emrAB = experiment: MIC susceptibility profiling, efflux platform; conditions: for Fold change of MICs: EKO-35 araC::emrAB compared to EKO-35
In short: (§2)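 Overnight LB cultures were grown at 37 °C with aeration, then washed into PBS, pH 7.4, to OD600 ~1.0. A 1/2000 dilution in MHB II was exposed to compound dilution series for 18 h at 37 °C. The MIC was taken from corrected OD600.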

EKO-35 araC::acrD = experiment: MIC susceptibility profiling, efflux platform; conditions: for Fold change of MICs: EKO-35 araC::acrD compared to EKO-35
In short: as §2

EKO-35 araC::acrBD408A = experiment: MIC susceptibility profiling, efflux platform; conditions: for Fold change of MICs: EKO-35 araC::acrBD408A compared to EKO-35
In short: as §2

EKO-35 araC::emrKY = experiment: MIC susceptibility profiling, efflux platform; conditions: for Fold change of MICs: EKO-35 araC::emrKY compared to EKO-35
In short: as §2

EKO-35 araC::acrEF = experiment: MIC susceptibility profiling, efflux platform; conditions: for Fold change of MICs: EKO-35 araC::acrEF compared to EKO-35
In short: as §2

EKO-35 araC::macAB = experiment: MIC susceptibility profiling, efflux platform; conditions: for Fold change of MICs: EKO-35 araC::macAB compared to EKO-35
In short: as §2

EKO-35 araC::mdtBC = experiment: MIC susceptibility profiling, efflux platform; conditions: for Fold change of MICs: EKO-35 araC::mdtBC compared to EKO-35
In short: as §2

[2] = tested on: EKO-35 araC::mexCD (MexCD from P. aeruginosa); experiment: MIC susceptibility profiling, efflux platform; conditions: for Fold change of MICs: EKO-35 araC::mexCD compared to EKO-35
In short: as §2

[3] = Table 14A, porinated, technical duplicate
[4] = Table 13B, non-porinated, technical duplicate
[5] = Table 13A, non-porinated, technical duplicate

Compound | Fold changes of MICs (EKO-35 araC::acrD Pore) | Fold changes of MICs (EKO-35 araC::emrKY Pore) | Fold changes of MICs (EKO-35 araC::emrAB Pore) | Fold changes of MICs (EKO-35 araC::mdtEF Pore) | Fold changes of MICs (EKO-35 araC::mdtBC Pore) | Fold changes of MICs [1] | Fold changes of MICs (EKO-35 araC::acrB Pore) | Fold changes of MICs (EKO-35 araC::mexCD Pore) | Fold changes of MICs (EKO-35 araC::macAB Pore) | Fold change of MICs (EKO-35 araC::emrAB) | Fold change of MICs (EKO-35 araC::acrD) | Fold change of MICs (EKO-35 araC::acrBD408A) | Fold change of MICs (EKO-35 araC::emrKY) | Fold change of MICs (EKO-35 araC::acrEF) | Fold change of MICs (EKO-35 araC::macAB) | Fold change of MICs (EKO-35 araC::mdtBC) | Fold change of MICs [2] | Minimum inhibitory concentration, EKO-35 araC::acrEF Pore (EKO-35 araC::acrEF Pore) | Minimum inhibitory concentration, EKO-35 araC::acrD Pore (EKO-35 araC::acrD Pore; [3]) | Minimum inhibitory concentration (EKO-35 araC::emrKY Pore) | other results
CN[C@@H]1[C@H](O)[C@H](NC)[C@H]2O[C@@]3(O)C(=O)C[C@@H](C)O[C@H]3O[C@@H]2[C@H]1O [Spectinomycin] | 2 fold | 1 fold | 1 fold | 1 fold | 1 fold | 1 fold | 2 fold | 1 fold | 1 fold | 1 fold | 1 fold | 1 fold | 1 fold | 1 fold | 1 fold | 1 fold | 1 fold |  |  |  | Fold changes of MICs (EKO-35 araC::acrEF Pore; EKO-35 araC::acrEF Pore compared to EKO-35-Pore): 1 fold; MIC (EKO-35 araC::acrD Pore; Escherichia coli, Table 14A, porinated, technical duplicate, read-out: Minimum inhibitory concentration, EKO-35 araC::acrD Pore): 25 µg/mL; MIC (EKO-35 araC::acrB Pore; Escherichia coli, Table 14A, porinated, technical duplicate, read-out: Minimum inhibitory concentration, EKO-35 araC::acrB Pore): 25 µg/mL; MIC (EKO-35 araC::emrAB; Escherichia coli, Table 13B, non-porinated, technical duplicate, read-out: Minimum Inhibitory Concentration, EKO-35 araC::emrAB): 25 µg/mL; MIC (EKO-35 araC::acrD; Escherichia coli, Table 13A, non-porinated, technical duplicate, read-out: Minimum Inhibitory Concentration, EKO-35 araC::acrD): 25 µg/mL; MIC (EKO-35 araC::acrBD408A; Escherichia coli, Table 13B, non-porinated, technical duplicate, read-out: Minimum Inhibitory Concentration, EKO-35 araC::acrBD408A): 25 µg/mL; MIC (EKO-35 araC::emrKY; Escherichia coli, Table 13B, non-porinated, technical duplicate, read-out: Minimum Inhibitory Concentration, EKO-35 araC::emrKY): 25 µg/mL; MIC (EKO-35 araC::acrEF; Escherichia coli, Table 13A, non-porinated, technical duplicate, read-out: Minimum Inhibitory Concentration, EKO-35 araC::acrEF): 25 µg/mL; MIC (EKO-35 araC::macAB; Escherichia coli, Table 13B, non-porinated, technical duplicate, read-out: Minimum Inhibitory Concentration, EKO-35 araC::macAB): 25 µg/mL; MIC (EKO-35 araC::mdtBC; Escherichia coli, Table 13B, non-porinated, technical duplicate, read-out: Minimum Inhibitory Concentration, EKO-35 araC::mdtBC): 25 µg/mL; MIC ([2]; Table 13B, non-porinated, technical duplicate, read-out: Minimum Inhibitory Concentration, EKO-35 araC::mexCD): 25 µg/mL
O=C(NC(=O)N1CCc2c([nH]c3ccccc23)C1C(F)(F)F)c1ccccc1 (stereo not shown) [compound 13] | 2 fold | 1 fold | 2 fold | 8 fold | 1 fold | 1 fold | 64 fold | 1 fold | 1 fold | 8 fold | 8 fold | 1 fold | 1 fold | 8 fold | 1 fold | 1 fold | 8 fold | 20 µg/mL | 10 µg/mL | 2.5 µg/mL | Minimum inhibitory concentration (EKO-35 araC::emrAB Pore): 10 µg/mL; Minimum inhibitory concentration, EKO-35 araC::mdtEF Pore (EKO-35 araC::mdtEF Pore): 40 µg/mL; Minimum inhibitory concentration (EKO-35 araC::mdtBC Pore): 5 µg/mL; Minimum inhibitory concentration [1]: 5 µg/mL; Minimum inhibitory concentration, EKO-35 araC::acrB Pore (EKO-35 araC::acrB Pore; [3]): 320 µg/mL; Minimum inhibitory concentration (EKO-35 araC::mexCD Pore): 5 µg/mL; efflux pump-mediated resistance vs EKO-35-Pore (EKO-35 araC::mexCD Pore): no longer associated MexCD with resistance; Minimum inhibitory concentration (EKO-35 araC::macAB Pore): 5 µg/mL; Minimum Inhibitory Concentration, EKO-35 araC::emrAB (EKO-35 araC::emrAB; [4]): 320 µg/mL; Minimum Inhibitory Concentration, EKO-35 araC::acrD (EKO-35 araC::acrD; [5]): 320 µg/mL; Minimum Inhibitory Concentration, EKO-35 araC::acrBD408A (EKO-35 araC::acrBD408A; [4]): 40 µg/mL; Minimum Inhibitory Concentration, EKO-35 araC::emrKY (EKO-35 araC::emrKY; [4]): 40 µg/mL; Minimum Inhibitory Concentration, EKO-35 araC::acrEF (EKO-35 araC::acrEF; [5]): 320 µg/mL; Minimum Inhibitory Concentration, EKO-35 araC::macAB (EKO-35 araC::macAB; [4]): 40 µg/mL; Minimum Inhibitory Concentration, EKO-35 araC::mdtBC (EKO-35 araC::mdtBC; [4]): 40 µg/mL; Minimum Inhibitory Concentration, EKO-35 araC::mexCD [2, 4]: 320 µg/mL
deoxycholate | 8 fold | 1 fold | 4 fold | 8 fold | 4 fold | 1 fold | 8 fold | 2 fold | 1 fold | 4 fold | 4 fold | 1 fold | 1 fold | 4 fold | 1 fold | 4 fold | 4 fold | 1500 µg/mL | 1500 µg/mL | 187.5 µg/mL | Minimum inhibitory concentration (EKO-35 araC::emrAB Pore): 750 µg/mL; Minimum inhibitory concentration, EKO-35 araC::mdtEF Pore (EKO-35 araC::mdtEF Pore): 1500 µg/mL; Minimum inhibitory concentration (EKO-35 araC::mdtBC Pore): 750 µg/mL; Minimum inhibitory concentration [1]: 93.75 µg/mL; Minimum inhibitory concentration, EKO-35 araC::acrB Pore (EKO-35 araC::acrB Pore; [3]): 1500 µg/mL; Minimum inhibitory concentration (EKO-35 araC::mexCD Pore): 375 µg/mL; efflux pump-mediated resistance vs EKO-35-Pore (EKO-35 araC::mexCD Pore): no longer associated MexCD with resistance; Minimum inhibitory concentration (EKO-35 araC::macAB Pore): 187.5 µg/mL; Minimum Inhibitory Concentration, EKO-35 araC::emrAB (EKO-35 araC::emrAB; [4]): 1500 µg/mL; efflux pump-mediated resistance vs EKO-35 (EKO-35 araC::acrD; AcrD): confirmed; Minimum Inhibitory Concentration, EKO-35 araC::acrD (EKO-35 araC::acrD; [5]): 1500 µg/mL; Minimum Inhibitory Concentration, EKO-35 araC::acrBD408A (EKO-35 araC::acrBD408A; [4]): 375 µg/mL; efflux pump-mediated resistance vs EKO-35 (EKO-35 araC::emrKY; EmrKY): could not substantiate; Minimum Inhibitory Concentration, EKO-35 araC::emrKY (EKO-35 araC::emrKY; [4]): 375 µg/mL; Minimum Inhibitory Concentration, EKO-35 araC::acrEF (EKO-35 araC::acrEF; [5]): 1500 µg/mL; Minimum Inhibitory Concentration, EKO-35 araC::macAB (EKO-35 araC::macAB; [4]): 187.5 µg/mL; efflux pump-mediated resistance vs EKO-35 (EKO-35 araC::mdtBC; MdtBC): conferred resistance; Minimum Inhibitory Concentration, EKO-35 araC::mdtBC (EKO-35 araC::mdtBC; [4]): 1500 µg/mL; Minimum Inhibitory Concentration, EKO-35 araC::mexCD [2, 4]: 1500 µg/mL

From patent US20230407243A1, “GENETIC PLATFORM TO INVESTIGATE THE FUNCTIONS OF BACTERIAL DRUG EFFLUX PUMPS” (priority 2022, published 2023)
